PMC3740200 (Dalton transactions (Cambridge, England : 2003), 2012)
Read-outs that look alike come from different tables or passages of the source.

Tests used:
DaCld(W227F) = DaCld(W227F) (Dechloromonas aromatica, UniProt Q47CX0, W261F); test: Equilibrium binding of heme ligands
WT DaCld = conditions: cited from earlier work
W156F DaCld = W156F DaCld (Dechloromonas aromatica, UniProt Q47CX0, W190F); test: Equilibrium binding of heme ligands
Chain of W156F DaCld (Q47CX0 32-282 W190F): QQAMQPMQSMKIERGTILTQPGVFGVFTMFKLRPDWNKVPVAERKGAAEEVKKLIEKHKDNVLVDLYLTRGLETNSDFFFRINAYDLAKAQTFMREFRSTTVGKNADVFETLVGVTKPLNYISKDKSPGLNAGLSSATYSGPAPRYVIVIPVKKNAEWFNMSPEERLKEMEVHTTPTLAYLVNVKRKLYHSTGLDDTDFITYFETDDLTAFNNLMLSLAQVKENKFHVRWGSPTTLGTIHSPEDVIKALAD

Chain of DaCld(W227F) (Q47CX0 32-282 W261F): as the sequence (Q47CX0 32-282 W190F) above, with F159W, W230F counted along it

Row | Structure (SMILES) | Kd (DaCld(W227F)) | Kd (WT DaCld; pH 7) | Kd (W156F DaCld) | Kd (WT DaCld; pH 7, 100 mM phosphate, 25 °C, ref [16]) | Kd (DaCld(W227F); pH 7) | Kd (W156F DaCld; pH 7)
1 | F [F^-, fluoride] | 3800 ± 900 µM | 15000 ± 1000 µM | – | – | – | –
2 | c1c[nH]cn1 [Imidazole] | 17.5 ± 1.5 µM | – | 26.6 ± 3.5 µM | 9.6 ± 0.3 µM | – | –
3 | [N-]=[N+]=[N-] [N3^-, azide] | – | 8.3 ± 0.1 µM | – | – | 7 ± 0.3 µM | 34.5 ± 3.1 µM
